Read-outs that look alike come from different tables or passages of the source.
Assays:
MCF-7 Br Ca cell line = assay: MTT cytotoxicity (antiproliferative) assay
Experimental: Cytotoxic activity evaluation
To measure the cytotoxic actvity of the synthesized naphthalen-1-yloxyacetamide
tethered acrlamide derivatives 5a-j and 6a,b in breast adenocarcinoma (MCF-7) cell line
(ATCC Cat. No. HTB-22). Cell viability assay was assessed using MTT assay method.
Cells at density of 1 x 104 were seeded in a 96-well plate at 37 °C for 24 h under 5%
CO2. After incubation, the cells were treated with different concentrations of the
investigated naphthalen-1-yloxyacetamide tethered acrlamide derivatives 5a-j and 6a,b
and incubated for 24 h, then 20 l of MTT solution at 5 mg/mL was applied and
incubated for 4 h at 37 °C. Dimethyl sulphoxide (DMSO) in volume of 100 µl was
added to each well to dissolve the purple formazan that had formed. The color intensity
of the formazan product, which represents the growth condition of the cells, is quantified
by using an ELISA plate reader (EXL 800, USA) at 570 nm absorbance. The experimental conditions were carried out with at least three replicates, and the experiments were repeated at least three times.

aromatase = molecular target: aromatase; design: method as in PMID 31416738; conditions: cited from earlier work
aromatase enzyme = molecular target: T1, aromatase enzyme (Homo sapiens, UniProt P11511); assay: Aromatase inhibition assay (ELISA method kit); assay type: biochemical; conditions: five concentrations
T1 construct: IC50 values against aromatase enzyme in MCF-7 Br Ca cells treated with; endogenous in cells; host or cells: MCF-7
T1 sequence (P11511 1-503): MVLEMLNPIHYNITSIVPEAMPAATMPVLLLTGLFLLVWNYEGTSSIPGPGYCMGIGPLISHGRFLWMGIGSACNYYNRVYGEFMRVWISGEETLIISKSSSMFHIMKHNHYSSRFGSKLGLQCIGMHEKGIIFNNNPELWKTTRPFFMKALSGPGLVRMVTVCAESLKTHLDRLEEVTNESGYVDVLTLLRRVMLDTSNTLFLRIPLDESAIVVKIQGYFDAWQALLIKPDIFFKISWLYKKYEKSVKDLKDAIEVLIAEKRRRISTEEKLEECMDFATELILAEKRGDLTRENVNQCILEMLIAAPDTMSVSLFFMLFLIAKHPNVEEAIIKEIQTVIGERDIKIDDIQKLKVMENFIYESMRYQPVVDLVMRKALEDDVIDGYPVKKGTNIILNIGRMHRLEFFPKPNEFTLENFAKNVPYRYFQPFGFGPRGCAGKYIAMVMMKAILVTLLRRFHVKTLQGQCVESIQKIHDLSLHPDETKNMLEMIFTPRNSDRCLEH

MCF-7 Br Ca cells [1] = assay: FITC-Annexin V/PI apoptosis assay; assay type: cell-based; conditions: MCF-7, 48 h
MCF-7 Br Ca cells [2] = assay: DNA flow cytometry cell cycle analysis; assay type: cell-based; conditions: MCF-7, at the IC50 value for 48 h
Text: It is frequently utilized in cell biology to comprehend growth regulation, cell proliferation and the impact of both drugs and genetic alterations on cellular division.[44] Recognizing and manipulating the phase at which cell cycle arrest occurs can improve the therapeutic efficacy and selectivity of chemotherapeutic drugs, as many cancer therapies target rapidly proliferating cells.[45] The most cytotoxic naphthalen-1-yloxyacetamide-tethered acrylamide conjugate, 5d, was chosen in order to further assess its impact on the advancement on cell cycle in MCF-7 Br Ca cells. […] There was also a control experiment that receives no treatment. According to Flow cytometric study, naphthalen-1-yloxyacetamide-tethered acrylamide conjugate 5d treatment causes a G1 stoppage that is almost 1.4-times greater than that of the control (Fig. 4).
S4.2.3. Cell cycle analysis of compound 5d
Cell cycle analysis in MCF-7 cells was investigated using fluorescent Annexin V-FITC/ PI detection kit (BioVision EZCellTM Cell Cycle Analysis Kit Catalog #K920) by flow […]
washed twice in PBS. After that, the cells were incubated at 37 °C and 5% CO2. The […]
twice in PBS, fixed with 70% ethanol, rinsed again with PBS. Afterward, medium was stained with DNA fluorochrome PI for 15 min at 37 °C. The samples were immediately analyzed using Facs Calibur flow cytometer (Becton and Dickinson, Heidelberg, […]
S4.2.4. […]

Bax = Bax level assay in MCF-7 cells; assay type: cell-based; conditions: MCF-7, qRT-PCR technique (SI: ELISA kit), IC50 concentration
Text: (§1) Programmed cell death, or apoptosis, is a complex series of biochemical processes.[50] Pro-apoptotic proteins include Bad, Bax, Bid and Bim, while anti-apoptotic members include Bcl-2 and Bc-LXI.[51,52] The anti-apoptotic proteins prevent cytochrome-c from release, which inhibits apoptosis, while pro-apoptotic members activate the release of cytochrome-c.[53] When there is a higher ratio of pro-apoptotic proteins than anti-apoptotic ones, the outer mitochondrial membrane becomes permeable leading to a cascade of events.[54] The cytochrome-c is released, which activates caspase 9, which in turn triggers caspase 3, which triggers apoptotic processes.[55] […] According to the data, the tested compound's Bax gen level increased noticeably compared with control. […]
(§2) Annexin V-FITC/ PI dye for 15 min in the dark at 37 °C. The samples were immediately analyzed using FACS Calibur flow cytometer (Becton and Dickinson, Heidelberg, […]
(§3) Bcl-2, Bax and Caspase 9 activities in MCF-7 Br Ca cells were detected in the presence of conjugate 5d at the IC50 concentration (µM). The levels of anti-apoptotic marker Bcl-2, apoptotic markers Bax as well as Caspase 9 were assessed using appropriate ELISA kit. […]
(§4) with IC50 concentration of compound 5d. […] The samples were measured at 450 nm in ROBONEK P2000 ELISA reader. […]

Bcl-2 = Bcl-2 level assay in MCF-7 cells; assay type: cell-based; conditions: MCF-7, qRT-PCR technique (SI: ELISA kit), IC50 concentration
Text: as §1, §2, §3, §4

caspase 9 = assay: Caspase 9 level assay in MCF-7 cells; assay type: cell-based; conditions: MCF-7, qRT-PCR technique (SI: ELISA kit), IC50 concentration
Text: An essential initiator caspase in the intrinsic apoptotic process is caspase 9.[56] It is essential for inducing cell death in response to internal stress such as oxidative stress, DNA damage, or oncogene activation conditions, which are frequently present in cancer cells.[57] Therefore, therapeutic strategies that enhance or restore its activity can potentially overcome apoptosis resistance in tumors.[58] In this context, naphthalene-1-yloxyacetamide tethered acrylamide conjugate 5d were evaluated as caspase 9 activator against MCF-7 cells using qRT-PCR technique. […] It is worth mentioning that, the level of caspase 9 protein level is increased 8.2-fold more than the negative control.
Apoptosis in MCF-7 cells was investigated using fluorescent Annexin V-FITC/ PI detection kit (BioVision Annexin V-FITC Apoptosis Detection Kit, Catalog #: K101) by […]
as §2
6. […]
as §3, §4

[3] = Homo sapiens, MCF7, read-out: IC50 MCF-7, MTT, MCF-7 Br Ca cell line, mean ± SD (n = 3)

Question: With COc1ccc(/C=C(\NC(=O)c2ccccc2)C(=O)NNC(=O)COc2cccc3ccccc23)c(OC)c1OC [5h, (Z)-N-(3-(2-(2-(Naphthalen-1-yloxy)acetyl)hydrazineyl)-3-oxo-1-(2,3,4-trimethoxyphenyl)prop-1-en-2-yl)benzamide] as the compound, how does the IC50 (MCF-7 Br Ca cell line; [3]) read?
Answer: 25.9 ± 1.41 µM

Question: For COc1ccc(/C=C(\NC(=O)c2ccccc2)C(=O)NNC(=O)COc2cccc3ccccc23)cc1OC [5f, (Z)-N-(1-(3,4-Dimethoxyphenyl)-3-(2-(2-(naphthalen-1-yloxy)acetyl)hydrazineyl)-3-oxoprop-1-en-2-yl)benzamide], which IC50 (MCF-7 Br Ca cell line; [3]) is on record?
Answer: 28.7 ± 1.45 µM

Question: Which IC50 (MCF-7 Br Ca cell line; [3]) does the source give for O=C(COc1cccc2ccccc12)NNC(=O)/C(=C/c1ccco1)NC(=O)c1ccccc1 [6a, (Z)-N-(1-(Furan-2-yl)-3-(2-(2-(naphthalen-1-yloxy)acetyl)hydrazineyl)-3-oxoprop-1-en-2-yl)benzamide] here?
Answer: 9.18 ± 0.66 µM

Question: Which IC50 (aromatase) does the source give for O=S(=O)(NCc1cccc(CNS(=O)(=O)c2ccc3ccccc3c2)c1)c1ccc2ccccc2c1 [IV] here?
Answer: 0.21 µM

Question: With COc1cc(/C=C(\NC(=O)c2ccccc2)C(=O)NNC(=O)COc2cccc3ccccc23)cc(OC)c1OC [5i, (Z)-N-(3-(2-(2-(Naphthalen-1-yloxy)acetyl)hydrazineyl)-3-oxo-1-(3,4,5-trimethoxyphenyl)prop-1-en-2-yl)benzamide] as the compound, how does the IC50 (MCF-7 Br Ca cell line; [3]) read?
Answer: 16.9 ± 0.82 µM

Question: For COc1ccc(C(=O)N/C(=C\c2cc(OC)c(OC)c(OC)c2)C(=O)NNC(=O)COc2cccc3ccccc23)cc1 [5j, (Z)-4-Methoxy-N-(3-(2-(2-(naphthalen-1-yloxy)acetyl)hydrazineyl)-3-oxo-1-(3,4,5-trimethoxyphenyl)prop-1-en-2-yl)benzamide], which IC50 (MCF-7 Br Ca cell line; [3]) is on record?
Answer: 21.2 ± 0.92 µM

Question: For COc1ccc(C(=O)N/C(=C\c2ccco2)C(=O)NNC(=O)COc2cccc3ccccc23)cc1 [6b, (Z)-N-(1-(Furan-2-yl)-3-(2-(2-(naphthalen-1-yloxy)acetyl)hydrazineyl)-3-oxoprop-1-en-2-yl)-4-methoxybenzamide], which IC50 (MCF-7 Br Ca cell line; [3]) is on record?
Answer: 11.5 ± 0.76 µM

Question: With CN(C)c1ccc(/C=C(\NC(=O)c2ccccc2)C(=O)NNC(=O)COc2cccc3ccccc23)cc1 [5e, (Z)-N-(1-(4-(Dimethylamino)phenyl)-3-(2-(2-(naphthalen-1-yloxy)acetyl)hydrazineyl)-3-oxoprop-1-en-2-yl)benzamide] as the compound, how does the IC50 (aromatase enzyme) read?
Answer: 0.093 µM

Question: For O=C(COc1cccc2ccccc12)NNC(=O)/C(=C/c1ccc([N+](=O)[O-])cc1)NC(=O)c1ccccc1 [5c, (Z)-N-(3-(2-(2-(Naphthalen-1-yloxy)acetyl)hydrazineyl)-1-(4-nitrophenyl)-3-oxoprop-1-en-2-yl)benzamide], which IC50 (aromatase enzyme) is on record?
Answer: 0.143 µM

Question: With COc1ccc(/C=C(\NC(=O)c2ccccc2)C(=O)NNC(=O)COc2cccc3ccccc23)cc1 [5d, (Z)-N-(1-(4-methoxyphenyl)-3-(2-(2-(naphthalen-1-yloxy)acetyl)hydrazineyl)-3-oxoprop-1-en-2-yl)benzamide] as the compound, how does the “early apoptosis fold increase vs control” value (MCF-7 Br Ca cells [1]) read?
Answer: 33.6 fold

Question: What about the “late apoptosis fold increase vs control” value (MCF-7 Br Ca cells [1]) of the same compound?
Answer: 42.0 fold

Question: What about the “late apoptotic cells percentage” value (MCF-7 Br Ca cells [1]; IC50 concentration, control untreated 0.14%) of the same compound?
Answer: 5.88%

Question: What about the early apoptosis percentage (MCF-7 Br Ca cells [1]; IC50 concentration, no treatment control 0.57%) of the same compound?
Answer: 19.17%

Question: What about the “G1 stoppage relative to control” value (MCF-7 Br Ca cells [2]) of the same compound?
Answer: ~1.4 times

Question: And the “Bax level fold vs untreated MCF-7 cells” value (Bax)?
Answer: 4.0 fold

Question: And the IC50 (aromatase enzyme)?
Answer: 0.078 µM

Question: What about the IC50 (MCF-7 Br Ca cell line; [3]) of the same compound?
Answer: 3.03 µM

Question: What about the IC50 (MCF-7 Br Ca cell line; read-out: IC50 MCF-7, MTT, MCF-7 Br Ca cell line, mean ± SD (n = 3)) of the same compound?
Answer: 2.33 ± 0.1 µM

Question: And the “Bcl-2 gene level factor vs negative control” value (Bcl-2)?
Answer: 0.3

Question: What about the “caspase 9 level fold vs negative control” value (caspase 9) of the same compound?
Answer: 8.2 fold

Question: With O=C(COc1cccc2ccccc12)NNC(=O)/C(=C/c1ccc(Br)cc1)NC(=O)c1ccccc1 [5b, (Z)-N-(1-(4-Bromophenyl)-3-(2-(2-(naphthalen-1-yloxy)acetyl)hydrazineyl)-3-oxoprop-1-en-2-yl)benzamide] as the compound, how does the IC50 (MCF-7 Br Ca cell line; [3]) read?
Answer: 30.7 ± 1.18 µM

Question: Which IC50 (MCF-7 Br Ca cell line; [3]) does the source give for O=C(COc1cccc2ccccc12)NNC(=O)/C(=C/c1cc(Br)c(O)c(Br)c1)NC(=O)c1ccccc1 [5g, (Z)-N-(1-(3,5-Dibromo-4-hydroxyphenyl)-3-(2-(2-(naphthalen-1-yloxy)acetyl)hydrazineyl)-3-oxoprop-1-en-2-yl)benzamide] here?
Answer: 18.5 ± 1.26 µM

Question: Which IC50 (MCF-7 Br Ca cell line; [3]) does the source give for O=C(COc1cccc2ccccc12)NNC(=O)/C(=C/c1ccc(Cl)cc1)NC(=O)c1ccccc1 [5a, (Z)-N-(1-(4-Chlorophenyl)-3-(2-(2-(naphthalen-1-yloxy)acetyl)hydrazineyl)-3-oxoprop-1-en-2-yl)benzamide] here?
Answer: 51.8 ± 1.51 µM

Reference: paper PMC12481249
